For this assay, the target named is T1, Lymphokine-activated killer T-cell-originated protein kinase (Homo sapiens, UniProt Q96KB5).
T1 sequence (Q96KB5 whole entry): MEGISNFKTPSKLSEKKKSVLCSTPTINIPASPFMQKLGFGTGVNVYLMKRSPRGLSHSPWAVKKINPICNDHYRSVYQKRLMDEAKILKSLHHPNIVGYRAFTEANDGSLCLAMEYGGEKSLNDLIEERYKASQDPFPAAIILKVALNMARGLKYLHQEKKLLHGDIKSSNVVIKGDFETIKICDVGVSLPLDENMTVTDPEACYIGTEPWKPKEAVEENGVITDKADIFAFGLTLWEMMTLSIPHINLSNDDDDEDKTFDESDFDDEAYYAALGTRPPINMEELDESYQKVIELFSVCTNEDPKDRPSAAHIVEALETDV
Description: Kinase Assay. The settings on record: pH 7.4; 25 °C. On the procedure:
PBK activity was determined in the presence or absence of compounds using fluorescein isothiocyanate-labeled (FITC-labeled) histone H3 peptide as a substrate. […] The serially diluted compounds, 0.8 ng/micro-L PBK (Carna Biosciences) and 100 nM FITC-labeled histone H3 peptide were reacted in a reaction buffer (20 mM HEPES, 0.01% Tween-20, 0.3 mM MgCl2, 2 mM dithiothreitol, 50 micro-M ATP, pH 7.4) at room temperature for 1 hour. The reaction was stopped by the addition of three fold assay volume of progressive binding solution. Following 0.5 hour incubation at room temperature.

Values joined by “and” are separate entries in the source; they are usually repeats but may differ in a detail not shown here. Identical values can stand only once.

For `CC(N)Cc1ccc(-c2c(O)cc(Cl)c3[nH]c(=O)c4sccc4c23)cc1` (configuration not stated) [US8962648, 1106], the IC50 stood at 41 nM. The result for `CCC(CN)c1ccc(-c2c(O)cc(C)c3[nH]c(=O)c4sccc4c23)cc1` (configuration not stated) [US8962648, 1291] reads 15 nM; that for `COc1cc(C)c2[nH]c(=O)c3sccc3c2c1-c1ccc(C2(CN)CC2)cc1` [US8962648, 1251], 55 nM. Consider `COc1ccc2[nH]c(=O)c3sccc3c2c1/C=C/CN1CCC(N)CC1` [US8962648, 152], for which the IC50 is 31 nM. The result for `CC(C)(N)c1ccc(-c2c(O)cc(Cl)c3[nH]c(=O)c4sccc4c23)cc1` [US8962648, 334] reads 10 nM.

`C[C@H](N)c1ccc(-c2c(O)ccc3[nH]c(=O)c4sccc4c23)cc1` [US8962648, 233] came in with an IC50 of 0.81 nM.

In the case of `CC(=O)c1ccc(-c2c(O)ccc3[nH]c(=O)c4sccc4c23)cc1` [US8962648, 296], half-maximal inhibition (IC50) required 23 nM. Consider `CCC(CN)c1ccc(-c2c(OC)cc(C)c3[nH]c(=O)c4sccc4c23)cc1` (configuration not stated) [US8962648, 1277], for which the IC50 came to 63 nM. To `CC[C@@H](N)c1ccc(-c2c(O)cc(C)c3[nH]c(=O)c4sccc4c23)cc1` [US8962648, 1157] belongs 18 nM. To `NCCc1ccc(-c2c(O)ccc3[nH]c(=O)c4sccc4c23)cc1F` [US8962648, 276] belongs 0.5 nM; to `CC(O)c1ccc(-c2c(O)ccc3[nH]c(=O)c4sccc4c23)cc1` (configuration not stated) [US8962648, 313], 2 nM; to `NCCc1cc(Br)c(-c2c(O)ccc3[nH]c(=O)c4sccc4c23)cc1O` [US8962648, 1224], 6.4 nM. To `Cc1cc(O)c(-c2ccc([C@@H](C)CN)cc2)c2c1[nH]c(=O)c1sc(Cl)cc12` [US8962648, 1353] belongs 4 nM; to `NCc1ccc(-c2c(O)cc(Cl)c3[nH]c(=O)c4sccc4c23)cc1` [US8962648, 329], 16 nM; to `CNC[C@@H](C)c1ccc(-c2c(O)cc(C)c3[nH]c(=O)c4sccc4c23)cc1` [US8962648, 1215], 60 nM.

`O=c1[nH]c2ccc(O)c(-c3ccc4cn[nH]c4c3)c2c2ccsc12` [US8962648, 61] registered an IC50 of 3.5 nM. To `CCN(CC)CCNCCCOc1ccc(-c2c(OC)ccc3[nH]c(=O)c4sccc4c23)cc1` [US8962648, 145] belongs 47 nM; to `C[C@@H](N)c1ccc(-c2c(O)cc(Br)c3[nH]c(=O)c4sccc4c23)cc1` [US8962648, 1123], 33 nM. On to `COc1ccc2[nH]c(=O)c3sccc3c2c1-c1ccc([C@@H](C)N)cc1` [US8962648, 274], for which the IC50 worked out at 3.8 nM. To `O=c1[nH]c2ccc(O)c(-c3ccc(S(=O)(=O)NCCBr)cc3)c2c2ccsc12` [US8962648, 210] belongs 11.3 nM; to `CN[C@@H](C)c1ccc(-c2c(O)cc(Cl)c3[nH]c(=O)c4sccc4c23)cc1` [US8962648, 1087], 19 nM. `CNCc1ccc(-c2c(O)ccc3[nH]c(=O)c4sccc4c23)cc1` [US8962648, 187] came in with an IC50 of 0.9 nM.

In turn, `N#CCCc1ccc(-c2c(O)ccc3[nH]c(=O)c4sccc4c23)cc1` [US8962648, 290] showed an IC50 of 3.2 nM. Regarding `Cc1cc(O)c(-c2ccc(C3(CN)CC3)cc2)c2c1[nH]c(=O)c1sccc12` [US8962648, 1254], 9.6 nM corresponded to half-maximal inhibition (IC50). As for `NC1Cc2ccc(-c3c(O)ccc4[nH]c(=O)c5sccc5c34)cc2C1` (configuration not stated) [US8962648, 345], the IC50 stood at 1.2 nM.

`CS(=O)(=O)NCc1ccc(-c2c(O)ccc3[nH]c(=O)c4sccc4c23)cc1` [US8962648, 212] returned an IC50 of 5.5 nM. To `CCN(CC)Cc1ccc(-c2c(O)ccc3[nH]c(=O)c4sccc4c23)cc1` [US8962648, 184] belongs 7.7 nM; to `CC(CN)c1ccc(-c2c(O)ccc3[nH]c(=O)c4sccc4c23)cc1Cl` (configuration not stated) [US8962648, 1280], 10 nM. `O=c1[nH]c2ccc(O)c(-c3ccc(S(=O)(=O)NCCBr)cc3)c2c2c1CCC2` [US8962648, 1094] displayed an IC50 of 10 nM. Molecule `CC(CBr)NS(=O)(=O)c1ccc(-c2c(O)ccc3[nH]c(=O)c4sccc4c23)cc1` (configuration not stated) [US8962648, 1062] showed an IC50 of 31 nM. To `CC(c1ccc(-c2c(O)ccc3[nH]c(=O)c4sccc4c23)cc1)N1CCCCC1` (configuration not stated) [US8962648, 262] belongs 4.3 nM; to `COc1ccc2[nH]c(=O)c3sccc3c2c1-c1ccc(CN2CCC(CNC(=O)OC(C)(C)C)CC2)cc1` [US8962648, 139], 9.4 nM. `CC[C@H](c1ccc(-c2c(O)ccc3[nH]c(=O)c4sccc4c23)cc1)N(C)C` [US8962648, 1151]: the IC50 was 2.5 nM. The molecule `Cc1cc(-c2c(O)ccc3[nH]c(=O)c4sccc4c23)ccc1NS(C)(=O)=O` [US8962648, 254] gave an IC50 of 3 nM.

The molecule `CN(C)CCc1ccc(-c2c(O)ccc3[nH]c(=O)c4sccc4c23)cc1` [US8962648, 93] returned an IC50 of 5.4 nM. Take `CCC(N)c1ccc(-c2c(OC)ccc3[nH]c(=O)c4sccc4c23)cc1` (configuration not stated) [US8962648, 337]: the IC50 came out at 5.2 nM. Consider `CN(C)C1CCCN(CCCc2c(O)ccc3[nH]c(=O)c4sccc4c23)C1` (configuration not stated) [US8962648, 298], for which the IC50 was 83 nM. To `Cc1cc2c(s1)c(=O)[nH]c1c(C)cc(O)c(-c3ccc([C@@H](C)CN)cc3)c12` [US8962648, 1340] belongs 12 nM; to `O=c1[nH]c2ccc(O)c(-c3ccc4c(c3)CNCC4)c2c2ccsc12` [US8962648, 353], 2 nM. To `C[C@H](c1ccc(-c2c(O)ccc3[nH]c(=O)c4sccc4c23)cc1)N(C)C` [US8962648, 272] belongs 0.88 nM. To `COc1cc(Cl)c2[nH]c(=O)c3sccc3c2c1-c1ccc(CCN)c(F)c1` [US8962648, 1218] belongs 87 nM. The molecule `CC(c1ccc(-c2c(O)ccc3[nH]c(=O)c4sccc4c23)cc1F)N(C)C` (configuration not stated) [US8962648, 349] registered an IC50 of 1.9 nM. To `COc1cc(F)c2[nH]c(=O)c3sccc3c2c1-c1ccc(CN)cc1` [US8962648, 257] belongs 26 nM; to `CC[C@@H](N)c1ccc(-c2c(O)ccc3[nH]c(=O)c4sccc4c23)cc1` [US8962648, 1131], 1.3 nM; to `CC(C)(N)c1ccc(-c2c(O)ccc3[nH]c(=O)c4sccc4c23)cc1` [US8962648, 319], 0.43 nM. `CC(=O)Oc1ccc2[nH]c(=O)c3sccc3c2c1-c1ccc(C(C)N)cc1` (configuration not stated) [US8962648, 1099] gave an IC50 of 33 nM. The result for `N#CCc1ccc(-c2c(O)ccc3[nH]c(=O)c4sccc4c23)cc1F` [US8962648, 261] reads 15 nM. The result for `COc1cc(C)c2[nH]c(=O)c3sc(C)cc3c2c1-c1ccc([C@@H](C)CN)cc1` [US8962648, 1341] reads 38 nM; that for `CC(C)(CN)c1ccc(-c2c(O)cc(Br)c3[nH]c(=O)c4sccc4c23)cc1` [US8962648, 1247], 72 nM; that for `NCc1ccc(-c2c(O)ccc3[nH]c(=O)c4sccc4c23)cc1` [US8962648, 73], 0.63 nM and 0.38 nM. As to `CN[C@@H](C)c1ccc(-c2c(O)ccc3[nH]c(=O)c4sccc4c23)cc1` [US8962648, 1082], the IC50 was 1.1 nM. In turn, `CN[C@H](C)c1ccc(-c2c(O)cc(C)c3[nH]c(=O)c4sccc4c23)cc1` [US8962648, 1262] showed a half-maximal inhibitory concentration (IC50) of 12 nM.

Regarding `CC(c1ccc(-c2c(O)ccc3[nH]c(=O)c4sccc4c23)cc1)N1CCCC1` (configuration not stated) [US8962648, 194], it took 2.8 nM to reach half-maximal inhibition (IC50). To `CC(C)OC(=O)Oc1ccc2[nH]c(=O)c3sccc3c2c1-c1ccc(C(C)N)cc1` (configuration not stated) [US8962648, 1077] belongs 76 nM; to `CCNC(C)c1ccc(-c2c(O)ccc3[nH]c(=O)c4sccc4c23)cc1` (configuration not stated) [US8962648, 385], 3.9 nM; to `CC(NC1CCCC1)c1ccc(-c2c(O)ccc3[nH]c(=O)c4sccc4c23)cc1` (configuration not stated) [US8962648, 314], 2.8 nM. The result for `CCC(CN)c1ccc(-c2c(O)ccc3[nH]c(=O)c4sccc4c23)cc1` (configuration not stated) [US8962648, 1309] reads 0.74 nM; that for `CN[C@@H](C)c1ccc(-c2c(OC)ccc3[nH]c(=O)c4sccc4c23)cc1` [US8962648, 1064], 2.5 nM; that for `CNC[C@@H](C)c1ccc(-c2c(O)ccc3[nH]c(=O)c4sccc4c23)cc1` [US8962648, 1197], 2.8 nM. With `CC(N)Cc1ccc(-c2c(O)ccc3[nH]c(=O)c4sccc4c23)cc1` (configuration not stated) [US8962648, 1095], the IC50 worked out at 1.3 nM. To `NCc1ccc(-c2c(O)ccc3[nH]c(=O)c4sccc4c23)s1` [US8962648, 266] belongs 0.78 nM; to `NCC1(c2ccc(-c3c(O)ccc4[nH]c(=O)c5sccc5c34)cc2)CCC1` [US8962648, 1300], 1.7 nM. In turn, `COc1ccc2[nH]c(=O)c3sccc3c2c1-c1ccc(CN(C)C)cc1` [US8962648, 164] yielded an IC50 of 11 nM. The result for `Cc1cc(O)c(-c2ccc([C@@H](C)CN)cc2)c2c1[nH]c(=O)c1sc(F)cc12` [US8962648, 1383] reads 3.7 nM.

`O=c1[nH]c2ccc(O)c(-c3ccc(S(=O)(=O)NCCBr)c(F)c3)c2c2ccsc12` [US8962648, 297]: the IC50 is 13 nM. The result for `CNCCc1ccc(-c2c(O)cc(C)c3[nH]c(=O)c4sccc4c23)cc1F` [US8962648, 1258] reads 25 nM. To `Cc1cc(O)c(-c2ccc(CCN)c(Cl)c2)c2c1[nH]c(=O)c1sccc12` [US8962648, 1264] belongs 3 nM.

As usually defined, the IC50 is the midpoint of a concentration-inhibition curve. Read a low IC50 as greater potency.
